Results from article PMC12333940, “A prometabolite strategy inhibits cardiometabolic disease in an ApoE^–/– murine model of atherosclerosis” (JCI Insight, 2025).
Several values for one entry are separate records, joined by “and”; a condition that tells them apart may be missing. Equal values may be shown once.

Legend:
[1] = tested on: ApoE^–/– mice on an HFD; test: Flow cytometry of blood, lymph nodes and spleen; assay type: in vivo, mouse; design: Treg / Th17 / F480+CD11b+ Macrophages / iNOS+ Macs / Arg1+ Macs: unit not given here
Method: SerBut water was pH adjusted using 10 M NaOH to a final pH of 7.4. […] After 6 weeks, mice were euthanized. The lMLNs, ILNs, spleen, heart, and aorta were harvested and processed for flow cytometry analysis ([67]). […] The remaining liver was fixed with 4% paraformaldehyde and embedded in paraffin for histological analysis.
Flow cytometry was performed using a BD LSRFortessa or a Cytek Aurora full-spectrum cytometer.

[2] = tested on: ApoE^–/– mice on an HFD; test: CD68 immunohistochemistry and Stary plaque severity grading; assay type: in vivo, mouse; design: STARY Score Average: scale not given here
Method: For 6 weeks, mice were freely administered water, water containing 150 mM SerBut, or water containing an equimolar amount of NaBut. SerBut water was pH adjusted using 10 M NaOH to a final pH of 7.4. […] In concert, mice were fed an HFD with 42% from fat and 0.2% total cholesterol (Envigo, TD-88137) ad libitum. After 6 weeks, mice were euthanized. The lMLNs, ILNs, spleen, heart, and aorta were harvested and processed for flow cytometry analysis ([67]). The liver was harvested and part was homogenized in tissue protein extraction reagent buffer (Invitrogen, 78510) supplemented with protease inhibitor mini tablets (Thermo Fisher Scientific, PIA32955) for Western blotting and qPCR. The remaining liver was fixed with 4% paraformaldehyde and embedded in paraffin for histological analysis.
Frozen aortic root sections were fixed in Zamboni fixative for 10 minutes. After TBS wash, slides were loaded on Leica Bond RX automated stainer. Anti–mouse CD68 antibody (BioLegend, catalog 137001, clone FA-11; 1:4000) was applied to tissue sections for 60 minutes of incubation at room temperature. Following TBS wash, tissue sections were incubated with rabbit anti-rat IgG (Thermo Fisher Scientific, 31219) 30 minutes. The antigen-antibody binding was detected using Polymer-HRP (Leica Biosystems, Bond Polymer Refine Detection kit, DS9800). The slides were coverglassed by autocoverslipper (Tissue-Tek Glas g2). Stary plaque severity grading was done as previously described ([42]). Briefly, each individual mouse was scored if there were at least 2 sections showing all 3 leaflets of the aortic valve that could reasonably be scored. Each leaflet was scored individually per aortic valve and subsequently averaged per section. All sections were averaged per mouse for a final score. Sections were graded blinded. Table 1 explains the scoring scale. Quantitative analysis of plaque features was performed using a classifier in QuPath (v.05.0).

[3] = tested on: LDL-R; test: Western blot of LDL-R in liver; assay type: in vivo, mouse
Excerpt: SerBut water was pH adjusted using 10 M NaOH to a final pH of 7.4. […] After 6 weeks, mice were euthanized. […] The liver was harvested and part was homogenized in tissue protein extraction reagent buffer (Invitrogen, 78510) supplemented with protease inhibitor mini tablets (Thermo Fisher Scientific, PIA32955) for Western blotting and qPCR.

[4] = LC-MS/MS of free butyrate in solution of fresh and aged SerBut; settings: freshly dissolved
Method: To investigate stability, we repeated the experiment with SerBut in FBS-supplemented complete media stored for 1 month at 37°C (Figure 1B).
(B) LC-MS/MS analysis of free butyrate in solution of aged SerBut (incubated at 37°C in FBS-supplemented media for 1 month) and freshly dissolved SerBut and NaBut. (C) NF-κB activity of RAW Blue reporter cells upon treatment with the indicated concentrations of SerBut or NaBut for 24 hours followed by stimulation with 200 ng/mL LPS for 6 hours. (D–J) RAW 264.7 cells treated for 24 hours with the indicated concentrations of SerBut or NaBut followed by stimulation with 200 ng/mL LPS for 6 hours. (D–E) Mean fluorescence intensity (MFI) of iNOS^+ or CD80^+ RAW 264.7 cells analyzed by flow cytometry. (F–J) Cytokine concentrations in the cell culture supernatant of RAW 264.7 cells. “x” indicates untreated group. In A, n = 3 per group representing technical replicates. In B, n = 3 freshly prepared samples per 2 distinct experiments pooled for aged SerBut and NaBut groups, while fresh the SerBut group represents a single experiment. One sample in the aged SerBut group and 2 samples in the NaBut group were lost due to filtering malfunctions or LC-MS/MS autosampling malfunctions. In C, n = 6 technical replicates. Data represent mean ± SEM. […] In A, 2-way ANOVA was performed.
Samples were prepared and derivatized as described previously ([28]). Stock solutions were prepared in water/acetonitrile (ACN) (1:1 v/v): 3-nitrophenylhydrazine (NPH), and 1-ethyl-3-(3-dimethylaminopropyl)carbodiimide (EDC) (in 1% pyridine). The internal standard, 4-methylvaleric acid, was added. Samples were mixed with NPH and EDC stocks at a 1:1:1 volume ratio. The mixture was heated in a heating block at 60°C for 30 minutes. Samples were filtered through 0.22 μm filters and stored at 4°C before analysis.
Both derivatized butyrate-NPH and 4-methylvaleric-NPH were detected in negative mode. Column: Thermo Fisher Scientific C18 4.6 × 50 mm, 1.8 μm particle size, at room temperature. Mobile phase A: water with 0.1% v/v formic acid. Mobile phase B: ACN with 0.1% v/v formic acid. Injection volume: 5.0 μL. Flow rate: 0.5 mL/min. […] The MS conditions were optimized using pure butyrate-NPH or 4-methylvaleric-NPH at 1 mM. […] The ratio between MRM of butyrate and 4-methylvaleric acid was used to quantify butyrate concentration.

[5] = Inguinal Lymph Node Flow, individual mice
[6] = Mesenteric Lymph Node Flow, individual mice

Structure (SMILES): CCCC(=O)[O-].[Na+] [NaBut, sodium butyrate, reference compound]
- Arg1+ Macs [1, 5]: 1.5 and 2.34 and 2.81 and 2.38
- F480+CD11b+ Macrophages [1, 5]: 0.62 and 0.34 and 0.21 and 0.27
- Th17 [1, 5]: 4.92 and 5.5 and 5.4 and 13 and 8.24 and 3.69 and 4.14 and 8.43 and 4.57 and 3.89
- Th17/Treg [1, 5]: 0.4278 and 0.4365 and 0.4463 and 1.161 and 0.7423 and 0.2976 and 0.345 and 0.4153 and 0.3288 and 0.2701
- Treg [1, 5]: 11.5 and 12.6 and 12.1 and 11.2 and 11.1 and 12.4 and 12 and 20.3 and 13.9 and 14.4
- iNOS+ Macs [1, 5]: 2.2 and 5.7 and 2.33 and 5.26
- Arg1+ Macs [1, 6]: 1.44 and 1.98 and 1.72 and 1.71
- F480+CD11b+ Macrophages [1, 6]: 11.6 and 5.7 and 6.38 and 10.4
- Th17 [1, 6]: 11.7 and 14.4 and 12.2 and 12.1 and 11.3 and 18.4 and 15.3
- Th17/Treg [1, 6]: 1.054 and 1.385 and 0.8652 and 1.008 and 0.8968 and 1.108 and 0.8895
- Treg [1, 6]: 11.1 and 10.4 and 14.1 and 12 and 12.6 and 16.6 and 17.2
- iNOS+ Macs [1, 6]: 2.42 and 0.43 and 0.69 and 0.94
- Th17 ([1]; Spleen Flow, individual mice): 1.11 and 0.85 and 1.17 and 1.19 and 1.09 and 1.43 and 1.41 and 1.08 and 1.22 and 0.97
- Th17/Treg ([1]; Spleen Flow, individual mice): 0.1535 and 0.1111 and 0.1425 and 0.1357 and 0.131 and 0.1783 and 0.1653 and 0.135 and 0.1432 and 0.1325
- Treg ([1]; Spleen Flow, individual mice): 7.23 and 7.65 and 8.21 and 8.77 and 8.32 and 8.02 and 8.53 and 8 and 8.52 and 7.32
- Blood Neutrophils: CD11b+Ly6G+ %CD45 ([1]; blood, individual mice): 7.65 %CD45 and 9.07 %CD45 and 17.4 %CD45 and 8.36 %CD45 and 14.3 %CD45 and 19.3 %CD45 and 20.8 %CD45 and 17.3 %CD45 and 19.5 %CD45 and 14.8 %CD45 and 22.8 %CD45 and 4.26 %CD45 and 16.8 %CD45
- Th17/Treg cell ratio ([1]; spleen): lower Th17/Treg cell ratio
- STARY Score Average ([2]; average per mouse, experiments 1 and 2, grades per the 1st table): 4 and 4.278 and 4.083 and 3.889 and 4.367 and 4.595 and 4.611 and 4.667
- CD68+ IHC Quantification CD68 % Lesion ([2]; individual mice): 65.946 % Lesion and 80.0675 % Lesion and 77.46 % Lesion and 69.3112 % Lesion and 58.965 % Lesion and 57.8207 % Lesion and 65.2988 % Lesion
- CD68+ IHC Quantification CD68+ (um2) ([2]; individual mice): 195963 um2 and 152245 um2 and 221322 um2 and 227819 um2 and 178448 um2 and 177016 um2 and 268099 um2
- CD68+ IHC Quantification Intima % Lesion ([2]; individual mice): 12.0227 % Lesion and 7.77 % Lesion and 10.3458 % Lesion and 13.4964 % Lesion and 17.8935 % Lesion and 30.3544 % Lesion and 12.0651 % Lesion
- CD68+ IHC Quantification Intima (um2) ([2]; individual mice): 36578.9 um2 and 15233.4 um2 and 30544.5 um2 and 45695.4 um2 and 53110.1 um2 and 102496 um2 and 50318.2 um2
- CD68+ IHC Quantification Necrotic Core % Lesion ([2]; individual mice): 21.7224 % Lesion and 11.9211 % Lesion and 11.8215 % Lesion and 16.7081 % Lesion and 22.5501 % Lesion and 9.461 % Lesion and 22.3112 % Lesion
- CD68+ IHC Quantification Necrotic Core (um2) ([2]; individual mice): 64440.8 um2 and 22667.5 um2 and 33872.5 um2 and 54918.5 um2 and 69955.9 um2 and 28166.5 um2 and 89527.4 um2
- LDL-R protein levels in liver ([3]; 6 weeks): significantly suppressed
- LDL-R Relative Expression ([3]; western Blot quantifiation, individual mice): 0.9947 and 1.813 and 1.671 and 2.327 and 1.487 and 1.248 and 0.7546 and 0.5275 and 1.539 and 2.451
- Butyrate Release by LCMS-MS (free butyrate) [4]: 2.185 and 1.975 and 1.35 and 1.426
